Holding throughout (assay type): cell-based
Experiment [1] concerns SARS-CoV-2 variant Alpha. The experiment in a line: microbe, parasite or virus in culture. Conditions: for EC50: read-out: Antiviral Activity Against SARS-CoV-2 Variants in Vero EC50, Alpha; for EC90: read-out: Antiviral Activity Against SARS-CoV-2 Variants in Vero EC90, Alpha.
The test system of experiment [2] is SARS-CoV-2 variant Beta. As to the kind of experiment: microbe, parasite or virus in culture. Conditions: for EC50: read-out: Antiviral Activity Against SARS-CoV-2 Variants in Vero EC50, Beta; for EC90: read-out: Antiviral Activity Against SARS-CoV-2 Variants in Vero EC90, Beta.
Experiment [3] concerns SARS-CoV-2 variant Gamma. As to the kind of experiment: microbe, parasite or virus in culture. Conditions: for EC50: read-out: Antiviral Activity Against SARS-CoV-2 Variants in Vero EC50, Gamma; for EC90: read-out: Antiviral Activity Against SARS-CoV-2 Variants in Vero EC90, Gamma.
In experiment [4] the test system is SARS-CoV-2 Lineage A (Eng). As to the kind of experiment: Antiviral activity against SARS-CoV-2 Lineage A (Eng) in Vero. Conditions: for EC50: read-out: Antiviral Activity Against SARS-CoV-2 Variants in Vero EC50, Lineage A (Eng); for EC90: read-out: Antiviral Activity Against SARS-CoV-2 Variants in Vero EC90, Lineage A (Eng).
Experiment [5] deals with SARS-CoV-2 Lineage A (Wa). As to the kind of experiment: Antiviral activity against SARS-CoV-2 Lineage A (Wa) in Vero. The note with it: read-out: Antiviral Activity Against SARS-CoV-2 Variants in Vero EC50, Lineage A (Wa).
In experiment [6] the test system is SARS-CoV-2 variant Alpha. As to the kind of experiment: microbe, parasite or virus in culture.
The subject of experiment [7] is SARS-CoV-2 variant Beta. The experiment in a line: microbe, parasite or virus in culture. The note with it: Severe acute respiratory syndrome coronavirus 2, Calu-3, read-out: Antiviral Activity Against SARS-CoV-2 Variants in Calu3 EC50, Beta.
Experiment [8] deals with SARS-CoV-2 variant Gamma. As to the kind of experiment: microbe, parasite or virus in culture.
The subject of experiment [9] is SARS-CoV-2 variant Delta. The experiment in a line: microbe, parasite or virus in culture.
Experiment [10] concerns SARS-CoV-2 Lineage A (Eng). As to the kind of experiment: Antiviral activity against SARS-CoV-2 Lineage A (Eng) in Calu3.
Experiment [11] deals with SARS-CoV-2 Lineage A (Wa). As to the kind of experiment: Antiviral activity against SARS-CoV-2 Lineage A (Wa) in Calu3.
Where [12] appears, read: Severe acute respiratory syndrome coronavirus 2, Vero.
[13] abbreviates: Severe acute respiratory syndrome coronavirus 2, Alpha, Vero.
[14] abbreviates: Severe acute respiratory syndrome coronavirus 2, Beta, Vero.
The mark [15] stands for this setting: Severe acute respiratory syndrome coronavirus 2, Gamma, Vero.
Setting [16] is: Severe acute respiratory syndrome coronavirus 2, Lineage A (Eng), Vero.

Where two headings read alike, the source gives them in different places.

On to `O=c1ccn([C@@H]2S[C@H](CO)[C@@H](O)[C@H]2O)c(=O)[nH]1` [Compound 8, 1-((2R,3R,4S,5R)-3,4-dihydroxy-5-(hydroxymethyl)tetrahydrothiophen-2-yl)pyrimidine-2,4(1H,3H)-dione], for which the EC50 in [1] (setting [12]) is 0.3 µM; in experiment [2] (setting [12]) it was 0.8 µM; in experiment [3] (setting [12]) it was 0.2 µM; in [4] (setting [12]), 0.2 µM; in experiment [5] (setting [12]) it was 0.8 µM; in [6] (Severe acute respiratory syndrome coronavirus 2, Calu-3, read-out: Antiviral Activity Against SARS-CoV-2 Variants in Calu3 EC50, Alpha), 0.3 µM. For the same compound, the EC50 in experiment [7] came to 1.1 µM; in experiment [8] (Severe acute respiratory syndrome coronavirus 2, Calu-3, read-out: Antiviral Activity Against SARS-CoV-2 Variants in Calu3 EC50, Gamma) it was 0.04 µM; in [9] (Severe acute respiratory syndrome coronavirus 2, Calu-3, read-out: Antiviral Activity Against SARS-CoV-2 Variants in Calu3 EC50, Delta) it was 1.8 µM; in experiment [11] (Severe acute respiratory syndrome coronavirus 2, Calu-3, read-out: Antiviral Activity Against SARS-CoV-2 Variants in Calu3 EC50, Lineage A (Wa)), 0.1 µM. Further, the EC90 was 1.4 µM in [1] (setting [12]); 1 µM in experiment [2] (setting [12]); 0.3 µM in experiment [3] (setting [12]); 0.4 µM in experiment [4] (setting [12]); 0.1 µM in experiment [8] (Severe acute respiratory syndrome coronavirus 2, Calu-3, read-out: Antiviral Activity Against SARS-CoV-2 Variants in Calu3 EC90, Gamma); 3.6 µM in experiment [9] (Severe acute respiratory syndrome coronavirus 2, Calu-3, read-out: Antiviral Activity Against SARS-CoV-2 Variants in Calu3 EC90, Delta). For the same compound, the EC90 was found to be 4.5 µM in [10] (Severe acute respiratory syndrome coronavirus 2, Calu-3, read-out: Antiviral Activity Against SARS-CoV-2 Variants in Calu3 EC90, Lineage A (Eng)) and 0.4 µM in experiment [11] (Severe acute respiratory syndrome coronavirus 2, Calu-3, read-out: Antiviral Activity Against SARS-CoV-2 Variants in Calu3 EC90, Lineage A (Wa)).

In the case of `CCC(CC)COC(=O)[C@H](C)N[P@](=O)(OC[C@H]1O[C@@](C#N)(c2ccc3c(N)ncnn23)[C@H](O)[C@@H]1O)Oc1ccccc1` [Remdesivir, reference compound], the EC50 was 0.4 µM in [1] (setting [13]); 1.1 µM in experiment [2] (setting [14]); 0.3 µM in experiment [3] (setting [15]); 0.3 µM in experiment [4] (setting [16]); 0.2 µM in experiment [5] (Severe acute respiratory syndrome coronavirus 2, Lineage A (Wa), Vero); 0.3 µM in [6] (Severe acute respiratory syndrome coronavirus 2, Calu-3, Alpha, Calu3, read-out: Antiviral Activity Against SARS-CoV-2 Variants in Calu3 EC50, Alpha). Moreover, the EC50 in experiment [8] (Severe acute respiratory syndrome coronavirus 2, Calu-3, Gamma, Calu3, read-out: Antiviral Activity Against SARS-CoV-2 Variants in Calu3 EC50, Gamma) is 0.26 µM; in experiment [9] (Severe acute respiratory syndrome coronavirus 2, Calu-3, Delta, Calu3, read-out: Antiviral Activity Against SARS-CoV-2 Variants in Calu3 EC50, Delta), 0.3 µM; in experiment [10] (Severe acute respiratory syndrome coronavirus 2, Calu-3, Lineage A (Eng), Calu3, read-out: Antiviral Activity Against SARS-CoV-2 Variants in Calu3 EC50, Lineage A (Eng)) it was 0.02 µM; in experiment [11] (Severe acute respiratory syndrome coronavirus 2, Calu-3, Lineage A (Wa), Calu3, read-out: Antiviral Activity Against SARS-CoV-2 Variants in Calu3 EC50, Lineage A (Wa)), 0.1 µM. Besides, the EC90 was 1.6 µM in experiment [1] (setting [13]); 2.2 µM in experiment [2] (setting [14]); 2.1 µM in experiment [3] (setting [15]); 2.9 µM in [4] (setting [16]); 0.4 µM in experiment [6] (Severe acute respiratory syndrome coronavirus 2, Calu-3, Alpha, Calu3, read-out: Antiviral Activity Against SARS-CoV-2 Variants in Calu3 EC90, Alpha); 0.3 µM in experiment [8] (Severe acute respiratory syndrome coronavirus 2, Calu-3, Gamma, Calu3, read-out: Antiviral Activity Against SARS-CoV-2 Variants in Calu3 EC90, Gamma). For the same compound, the EC90 amounted to 2.3 µM in experiment [9] (Severe acute respiratory syndrome coronavirus 2, Calu-3, Delta, Calu3, read-out: Antiviral Activity Against SARS-CoV-2 Variants in Calu3 EC90, Delta); 0.3 µM in experiment [10] (Severe acute respiratory syndrome coronavirus 2, Calu-3, Lineage A (Eng), Calu3, read-out: Antiviral Activity Against SARS-CoV-2 Variants in Calu3 EC90, Lineage A (Eng)); 0.4 µM in experiment [11] (Severe acute respiratory syndrome coronavirus 2, Calu-3, Lineage A (Wa), Calu3, read-out: Antiviral Activity Against SARS-CoV-2 Variants in Calu3 EC90, Lineage A (Wa)).

For the origin of these results see patent US20240216413A1, “THIONUCLEOSIDES AS ANTIVIRAL AGENTS” (priority 2021, published 2024).
